For 15 compounds, activity coefficient results are on record in the NIST ThermoML archive (doi:10.1016/j.fluid.2018.11.011).

SMILES strings stand for the structures. ± gives the expanded uncertainty stated by the source.

A short description of this series: activity coefficient (dimensionless); of the first substance listed, at infinite dilution; xn = mol fraction of the nth substance listed. As to conditions: 101.33 kPa, Liquid, Chromatography, x1 = 0.

For the compound `CCOCC` [diethyl ether] + CCCCCCCCCC[N+](C)(C)CCCCCCCCCC.F[B-](F)(F)F, the activity coefficient by setting is: (323 K) 1.08 ± 0.11; (338 K) 0.769 ± 0.08; (353 K) 0.79 ± 0.081.
Consider `C1CCCCCC1` [cycloheptane] + CCCCCCCCCC[N+](C)(C)CCCCCCCCCC.F[B-](F)(F)F, for which the activity coefficient (308 K) was 1.65 ± 0.17, the activity coefficient (323 K) stood at 1.61 ± 0.17, the activity coefficient (338 K) amounted to 1.57 ± 0.16 and the activity coefficient (353 K) turned out to be 1.98 ± 0.21.
Take `C/C=C/C(C)C` [(E)-4-methyl-2-pentene] + CCCCCCCCCC[N+](C)(C)CCCCCCCCCC.[O-][Cl+3]([O-])([O-])[O-]: the activity coefficient by setting is: (323 K) 1.68 ± 0.17; (338 K) 1.72 ± 0.18; (353 K) 1.46 ± 0.15.
As to `C=CCCCCC` [1-heptene] + CCCCCCCCCC[N+](C)(C)CCCCCCCCCC.[O-][Cl+3]([O-])([O-])[O-], the activity coefficient was 2.69 ± 0.28 (308 K), 1.85 ± 0.19 (323 K), 2.23 ± 0.23 (338 K) and 2.15 ± 0.23 (353 K).
The like results for `C=CCCC` [1-pentene] + CCCCCCCCCC[N+](C)(C)CCCCCCCCCC.F[B-](F)(F)F were, in that order, 1.27 ± 0.13, 1.2 ± 0.12, 1.13 ± 0.12 and 1.26 ± 0.13.
The like results for `C=CCCCC` [hex-1-ene] + CCCCCCCCCC[N+](C)(C)CCCCCCCCCC.F[B-](F)(F)F were, in that order, 1.51 ± 0.16, 1.52 ± 0.16, 1.53 ± 0.16 and 1.76 ± 0.18.
As for `C1CCCCC1` [cyclohexane] + CCCCCCCCCC[N+](C)(C)CCCCCCCCCC.[O-][Cl+3]([O-])([O-])[O-], the activity coefficient was found to be 2.05 ± 0.21 (308 K), 1.78 ± 0.19 (323 K), 1.66 ± 0.17 (338 K) and 1.54 ± 0.16 (353 K).
Turning to `CC(C)=O` [acetone] + CCCCCCCCCC[N+](C)(C)CCCCCCCCCC.[O-][Cl+3]([O-])([O-])[O-], the activity coefficient (323 K) is 0.489 ± 0.054, the activity coefficient (338 K) turned out to be 0.537 ± 0.058 and the activity coefficient (353 K) worked out at 0.527 ± 0.057.
Turning to `CCO` [ethanol] + CCCCCCCCCC[N+](C)(C)CCCCCCCCCC.[O-][Cl+3]([O-])([O-])[O-], the activity coefficient was 0.623 ± 0.066 (308 K), 0.497 ± 0.055 (323 K), 0.582 ± 0.062 (338 K) and 0.531 ± 0.058 (353 K).
As to `c1ccccc1` [benzene] + CCCCCCCCCC[N+](C)(C)CCCCCCCCCC.F[B-](F)(F)F, the activity coefficient by setting is: (323 K) 0.499 ± 0.055; (338 K) 0.519 ± 0.057; (353 K) 0.667 ± 0.07.
As to `CCCCCCCC` [octane] + CCCCCCCCCC[N+](C)(C)CCCCCCCCCC.[O-][Cl+3]([O-])([O-])[O-], the activity coefficient was determined as 3.98 ± 0.42 (308 K), 3.69 ± 0.39 (323 K), 3.42 ± 0.36 (338 K) and 3.16 ± 0.33 (353 K).
In the case of `C#CCCCCC` [1-heptyne] + CCCCCCCCCC[N+](C)(C)CCCCCCCCCC.F[B-](F)(F)F, the activity coefficient runs as follows: (308 K) 0.892 ± 0.091; (323 K) 0.893 ± 0.091; (338 K) 0.894 ± 0.091; (353 K) 1.12 ± 0.12.
On to `ClC(Cl)Cl` [trichloromethane] + CCCCCCCCCC[N+](C)(C)CCCCCCCCCC.F[B-](F)(F)F, for which the activity coefficient is, setting by setting: (323 K) 0.318 ± 0.04; (338 K) 0.346 ± 0.042; (353 K) 0.399 ± 0.047.
Turning to `CCO` [ethanol] + CCCCCCCCCC[N+](C)(C)CCCCCCCCCC.F[B-](F)(F)F, the activity coefficient is, setting by setting: (308 K) 0.539 ± 0.058; (323 K) 0.469 ± 0.052; (338 K) 0.408 ± 0.047; (353 K) 0.422 ± 0.048.
With `ClCCCl` [1,2-dichloroethane] + CCCCCCCCCC[N+](C)(C)CCCCCCCCCC.F[B-](F)(F)F, the activity coefficient runs as follows: (323 K) 0.616 ± 0.065; (338 K) 0.622 ± 0.066; (353 K) 0.682 ± 0.071.
